Assay in all cases: relative viability (nuclei count vs DMSO), 5 days (fraction); higher = more cells survive
Compound in test [1]: CO[C@@H]1[C@H](N(C)C(=O)c2ccccc2)C[C@H]2O[C@]1(C)n1c3ccccc3c3c4c(c5c6ccccc6n2c5c31)C(=O)NC4 [Midostaurin] + CC(=O)c1c(C)c2cnc(Nc3ccc(N4CCNCC4)cn3)nc2n(C2CCCC2)c1=O [Palbociclib] (partner 0.5 µM)
The method in brief:
(§1)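 Relative viability equals treated-well nuclei counts divided by vehicle-well nuclei counts. Counts came from 4× images of lung cancer cell lines grown in 1536-well plates for 5 days after pin-tool dosing on the day after seeding. Dosing used one drug alone or a fixed anchor-drug dose plus five library-drug doses (not always all listed) in √10 steps, and values are medians of duplicate plates.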

Compound in the test “Midostaurin + Crizotinib”: CO[C@@H]1[C@H](N(C)C(=O)c2ccccc2)C[C@H]2O[C@]1(C)n1c3ccccc3c3c4c(c5c6ccccc6n2c5c31)C(=O)NC4 [Midostaurin] + C[C@@H](Oc1cc(-c2cnn(C3CCNCC3)c2)cnc1N)c1c(Cl)ccc(F)c1Cl [Crizotinib] (partner 1 µM)
The method in brief:
as §1

Compound in test [2]: COc1cc(-c2nn([C@H]3CC[C@H](N4CCN(C(C)=O)CC4)CC3)c3ncnc(N)c23)ccc1NC(=O)c1cc2ccccc2n1C + CS(=O)(=O)N1CCN(Cc2cc3nc(-c4cccc5[nH]ncc45)nc(N4CCOCC4)c3s2)CC1 [Pictilisib] (partner 1 µM)
The procedure, abridged:
as §1

Compound in the test “Midostaurin + Bortezomib”: CO[C@@H]1[C@H](N(C)C(=O)c2ccccc2)C[C@H]2O[C@]1(C)n1c3ccccc3c3c4c(c5c6ccccc6n2c5c31)C(=O)NC4 [Midostaurin] + CC(C)C[C@H](NC(=O)[C@H](Cc1ccccc1)NC(=O)c1cnccn1)B(O)O [Bortezomib] (partner 0.002 µM)
The method in brief:
as §1

Compound in test [3]: COc1cc(-c2nn([C@H]3CC[C@H](N4CCN(C(C)=O)CC4)CC3)c3ncnc(N)c23)ccc1NC(=O)c1cc2ccccc2n1C + CC(C)C[C@H](NC(=O)[C@H](Cc1ccccc1)NC(=O)c1cnccn1)B(O)O [Bortezomib] (partner 0.002 µM)
The method in brief:
as §1

This passage reports relative viability results from the supplement of paper PMC10307832.

For the cell line NCI-H1648, the relative viability in test [1] (first compound 0.01 µM) stood at 0.35; in test [1] (first compound 0.3162 µM) it was 0.285.

As to SK-MES-1, the relative viability was found to be 0.966 with Midostaurin + Crizotinib (first compound 0.01 µM); 0.929 with Midostaurin + Crizotinib (first compound 0.03162 µM); 0.931 with Midostaurin + Crizotinib (first compound 0.1 µM); 0.94 with Midostaurin + Crizotinib (first compound 0.3162 µM); 0.326 in test [1] (first compound 0.01 µM); 0.359 in test [1] (first compound 0.03162 µM). In addition, the relative viability turned out to be 0.27 in test [1] (first compound 0.1 µM); 0.246 in test [1] (first compound 0.3162 µM); 0.343 in test [2] (first compound 0.0128 µM); 0.402 in test [2] (first compound 0.04048 µM); 0.361 in test [2] (first compound 0.128 µM); 0.221 in test [2] (first compound 1.28 µM).

As for HCC-366, the relative viability with Midostaurin + Bortezomib (first compound 0.01 µM) is 1.02; with Midostaurin + Bortezomib (first compound 0.03162 µM), 1.04; with Midostaurin + Bortezomib (first compound 0.1 µM), 1.02; with Midostaurin + Bortezomib (first compound 0.3162 µM), 1.1; in the test with Midostaurin + Crizotinib (first compound 0.01 µM), 0.504; with Midostaurin + Crizotinib (first compound 0.03162 µM), 0.505. Further, the relative viability with Midostaurin + Crizotinib (first compound 0.1 µM) turned out to be 0.445; with Midostaurin + Crizotinib (first compound 0.3162 µM) it was 0.522; in test [3] (first compound 0.0128 µM) it was 0.951; in test [3] (first compound 0.04048 µM), 0.859; in test [3] (first compound 0.128 µM), 1.09; in test [3] (first compound 1.28 µM), 0.849. Also, the relative viability in test [1] (first compound 0.01 µM) turned out to be 0.364; in test [1] (first compound 0.03162 µM) it was 0.409; in test [1] (first compound 0.1 µM) it was 0.389; in test [1] (first compound 0.3162 µM), 0.384; in test [2] (first compound 0.0128 µM), 0.09; in test [2] (first compound 0.04048 µM) it was 0.129. The relative viability in test [2] (first compound 0.128 µM) amounted to 0.161; in test [2] (first compound 1.28 µM), 0.141.

Turning to 201T, the relative viability in the test with Midostaurin + Bortezomib (first compound 0.01 µM) came to 1.08; in the test with Midostaurin + Bortezomib (first compound 0.03162 µM), 1.04; with Midostaurin + Bortezomib (first compound 0.1 µM) it was 1.05; with Midostaurin + Bortezomib (first compound 0.3162 µM) it was 1.13; with Midostaurin + Crizotinib (first compound 0.01 µM), 1.07; in the test with Midostaurin + Crizotinib (first compound 0.03162 µM) it was 1.01. For the same cell line, the relative viability with Midostaurin + Crizotinib (first compound 0.1 µM) turned out to be 1.01; in the test with Midostaurin + Crizotinib (first compound 0.3162 µM) it was 1.05; in test [3] (first compound 0.0128 µM), 1.14; in test [3] (first compound 0.04048 µM), 1.16; in test [3] (first compound 0.128 µM), 1.06; in test [3] (first compound 1.28 µM), 1.03. For the same cell line, the relative viability in test [1] (first compound 0.01 µM) is 0.366; in test [1] (first compound 0.03162 µM), 0.368; in test [1] (first compound 0.1 µM), 0.35; in test [1] (first compound 0.3162 µM) it was 0.406; in test [2] (first compound 0.0128 µM), 0.729; in test [2] (first compound 0.04048 µM), 0.639. For the same cell line, the results for the relative viability in test [2] (first compound 0.128 µM) and in test [2] (first compound 1.28 µM) were 0.571 and 0.432, respectively.

HCC-827: the relative viability with Midostaurin + Bortezomib (first compound 0.01 µM) was found to be 0.984; in the test with Midostaurin + Bortezomib (first compound 0.03162 µM) it was 0.951; with Midostaurin + Bortezomib (first compound 0.1 µM), 0.992; in the test with Midostaurin + Bortezomib (first compound 0.3162 µM), 1.07; in the test with Midostaurin + Crizotinib (first compound 0.01 µM) it was 0.856; with Midostaurin + Crizotinib (first compound 0.03162 µM), 0.844. Further, the relative viability with Midostaurin + Crizotinib (first compound 0.1 µM) turned out to be 0.858; in the test with Midostaurin + Crizotinib (first compound 0.3162 µM) it was 0.905; in test [3] (first compound 0.0128 µM) it was 0.831; in test [3] (first compound 0.04048 µM), 1.17; in test [3] (first compound 0.128 µM), 0.99; in test [3] (first compound 1.28 µM), 0.676. Further, the relative viability in test [1] (first compound 0.01 µM) worked out at 0.423; in test [1] (first compound 0.03162 µM), 0.521; in test [1] (first compound 0.1 µM), 0.503; in test [1] (first compound 0.3162 µM), 0.506; in test [2] (first compound 0.0128 µM) it was 1.1; in test [2] (first compound 0.04048 µM), 1.22. Also, the figures for the relative viability in test [2] (first compound 0.128 µM) and in test [2] (first compound 1.28 µM) were 0.902 and 0.783, respectively.

Take NCI-H647: the relative viability amounted to 0.953 with Midostaurin + Bortezomib (first compound 0.01 µM); 1.07 in the test with Midostaurin + Bortezomib (first compound 0.03162 µM); 0.876 with Midostaurin + Bortezomib (first compound 0.1 µM); 0.765 in the test with Midostaurin + Bortezomib (first compound 0.3162 µM); 1.06 with Midostaurin + Crizotinib (first compound 0.01 µM); 0.802 with Midostaurin + Crizotinib (first compound 0.03162 µM). Further, the relative viability in the test with Midostaurin + Crizotinib (first compound 0.1 µM) is 0.832; with Midostaurin + Crizotinib (first compound 0.3162 µM), 0.416; in test [3] (first compound 0.0128 µM) it was 1.13; in test [3] (first compound 0.04048 µM) it was 1.34; in test [3] (first compound 0.128 µM), 0.877; in test [3] (first compound 1.28 µM), 0.588. The relative viability was determined as 0.462 in test [1] (first compound 0.01 µM); 0.396 in test [1] (first compound 0.03162 µM); 0.485 in test [1] (first compound 0.1 µM); 0.465 in test [1] (first compound 0.3162 µM); 0.41 in test [2] (first compound 0.0128 µM); 0.456 in test [2] (first compound 0.04048 µM). Further, the relative viability amounted to 0.257 in test [2] (first compound 0.128 µM) and 0.28 in test [2] (first compound 1.28 µM).

Consider NCI-H2023, for which the relative viability was 0.974 in the test with Midostaurin + Bortezomib (first compound 0.01 µM); 0.961 in the test with Midostaurin + Bortezomib (first compound 0.03162 µM); 0.963 with Midostaurin + Bortezomib (first compound 0.1 µM); 0.567 with Midostaurin + Bortezomib (first compound 0.3162 µM); 0.642 with Midostaurin + Crizotinib (first compound 0.01 µM); 0.613 with Midostaurin + Crizotinib (first compound 0.03162 µM). Moreover, the relative viability with Midostaurin + Crizotinib (first compound 0.1 µM) amounted to 0.584; with Midostaurin + Crizotinib (first compound 0.3162 µM), 0.499; in test [3] (first compound 0.0128 µM), 0.977; in test [3] (first compound 0.04048 µM), 1.11; in test [3] (first compound 0.128 µM) it was 0.897; in test [3] (first compound 1.28 µM), 0.905. Moreover, the relative viability came out at 0.482 in test [1] (first compound 0.01 µM); 0.428 in test [1] (first compound 0.03162 µM); 0.341 in test [1] (first compound 0.1 µM); 0.192 in test [1] (first compound 0.3162 µM); 0.277 in test [2] (first compound 0.0128 µM); 0.188 in test [2] (first compound 0.04048 µM). Also, the relative viability worked out at 0.212 in test [2] (first compound 0.128 µM) and 0.22 in test [2] (first compound 1.28 µM).

On to NCI-H520, for which the relative viability with Midostaurin + Bortezomib (first compound 0.01 µM) was found to be 0.657; in the test with Midostaurin + Bortezomib (first compound 0.03162 µM), 0.492; with Midostaurin + Bortezomib (first compound 0.1 µM), 0.594; with Midostaurin + Bortezomib (first compound 0.3162 µM), 0.596; with Midostaurin + Crizotinib (first compound 0.01 µM), 0.69; in the test with Midostaurin + Crizotinib (first compound 0.03162 µM) it was 0.668. Besides, the relative viability with Midostaurin + Crizotinib (first compound 0.1 µM) came out at 0.691; with Midostaurin + Crizotinib (first compound 0.3162 µM), 0.525; in test [3] (first compound 0.0128 µM) it was 0.741; in test [3] (first compound 0.04048 µM), 0.624; in test [3] (first compound 0.128 µM), 0.358; in test [3] (first compound 1.28 µM), 0.334. Moreover, the relative viability in test [1] (first compound 0.01 µM) worked out at 0.24; in test [1] (first compound 0.03162 µM), 0.228; in test [1] (first compound 0.1 µM), 0.246; in test [1] (first compound 0.3162 µM), 0.276; in test [2] (first compound 0.0128 µM), 0.293; in test [2] (first compound 0.04048 µM), 0.337. Besides, the relative viability in test [2] (first compound 0.128 µM) came to 0.247; in test [2] (first compound 1.28 µM), 0.216.
